Target: T1, O-GlcNAcase (Homo sapiens, UniProt O60502)
T1 sequence (O60502 1-916): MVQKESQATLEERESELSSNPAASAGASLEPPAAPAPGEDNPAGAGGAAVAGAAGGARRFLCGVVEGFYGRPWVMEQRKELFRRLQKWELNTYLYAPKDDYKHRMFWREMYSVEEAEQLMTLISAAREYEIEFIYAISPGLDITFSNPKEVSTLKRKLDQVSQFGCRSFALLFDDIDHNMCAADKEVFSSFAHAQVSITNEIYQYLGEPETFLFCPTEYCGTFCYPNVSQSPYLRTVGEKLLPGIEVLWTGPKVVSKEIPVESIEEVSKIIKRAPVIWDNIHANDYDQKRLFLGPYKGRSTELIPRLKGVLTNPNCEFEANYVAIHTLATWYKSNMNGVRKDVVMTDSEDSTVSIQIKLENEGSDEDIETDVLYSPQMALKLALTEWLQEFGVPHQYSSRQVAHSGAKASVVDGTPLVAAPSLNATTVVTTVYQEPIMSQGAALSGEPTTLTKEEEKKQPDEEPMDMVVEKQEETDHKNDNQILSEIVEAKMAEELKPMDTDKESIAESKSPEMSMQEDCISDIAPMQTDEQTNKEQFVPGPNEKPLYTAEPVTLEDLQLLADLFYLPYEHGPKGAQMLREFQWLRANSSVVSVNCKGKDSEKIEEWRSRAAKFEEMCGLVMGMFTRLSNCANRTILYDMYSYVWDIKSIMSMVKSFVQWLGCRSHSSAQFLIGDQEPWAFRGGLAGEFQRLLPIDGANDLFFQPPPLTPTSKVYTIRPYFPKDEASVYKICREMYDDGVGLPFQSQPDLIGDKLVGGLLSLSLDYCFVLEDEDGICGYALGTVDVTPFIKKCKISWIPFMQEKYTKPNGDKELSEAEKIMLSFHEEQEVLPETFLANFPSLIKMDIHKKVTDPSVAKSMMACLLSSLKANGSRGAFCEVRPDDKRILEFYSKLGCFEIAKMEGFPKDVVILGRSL
Experiment: Assay for determination of KI values for inhibition of O-GlcNAcase activity (pNP-GlcNAc substrate)
Type: biochemical
Details: PBS pH 7.4, 0.5 mM pNP-GlcNAc, 37° C., Dixon plots
Procedure: Assay for Determination of KI Values for Inhibition of O-GlcNAcase Activity
Experimental procedure for kinetic analyses: Enzymatic reactions are carried out in PBS buffer (pH 7.4) using pNP-GlcNAc as a substrate (0.5 mM) and monitored continuously at 37° C. at 400 nm using a Cary 3E UV-VIS spectrophotometer equipped with a Peltier temperature controller. Reactions are pre-heated in a 500 μL quartz cuvette for approximately 5 minutes followed by addition of 10 μL enzyme via syringe (final enzyme concentration 0.002 mg/mL). Reaction velocities are determined by linear regression of the linear region of the reaction progress curve between the first and third minutes. An inhibitor concentration range of 1/5 to 5 times KI is used in each case.
All KI values are determined using linear regression of Dixon plots.

Ki: 850 nM
Compound: CC(=O)NC[C@H]1N[C@H](CO)[C@@H](O)[C@@H]1O [Compound 2, N-(((2R,3R,4R,5R)-3,4-dihydroxy-5-(hydroxymethyl)pyrrolidin-2-yl)methyl)acetamide]
